Experimental data reported in ChEMBL document CHEMBL1159274, “Spiganthine, the cardioactive principle of Spigelia anthelmia” (J Nat Prod, 1995).

Experiments:
[1] = (§1) Induction of delay in contraction development in electrically-stimulated guinea pig heart ventricular papillary muscle at contraction frequency of 1 Hz; type: functional, tissue-based; conditions: Cavia porcellus, Muscle tissue
[2] = species on record: Cavia porcellus; test: as §1; type: functional, tissue-based; conditions: Muscle tissue

SMILES	minimal effective concentration ([1]; read-out: MEC)	EC50 [1]	Activity [2]
CC(C)[C@@]1(O)[C@@H](OC(=O)c2cc[nH]c2)[C@@]2(O)[C@]3(C)C[C@@]4(O)O[C@@]5([C@H](O)[C@@H](C)CC[C@]35O)[C@@]2(O)[C@@]41C [RYANODINE]	0.0165 µM	–	–
CC(C)[C@@]1(O)[C@@H](OC(=O)c2cc[nH]c2)[C@@]2(O)[C@@]3(CO)C[C@]4(O)O[C@@]5([C@H](O)[C@@H](C)CC[C@]35O)[C@@]2(O)[C@]14C [SPIGANTHINE]	–	60 nM	Dose-dependent effect
